Values of other authors as cited in patent US20090246264A1, “Transdermal Tobacco Alkaloid Patch” (Fertin Pharma, priority 2005, published 2009).

Details: pure nicotine placed on the skin of an ordinary human being

Q: Which lethal dose does the source give for `CN1CCCC1c1cccnc1` (stereo not shown) [nicotine] here?
A: 50 mg
